Patent US10624828B2, “Personal care compositions comprising a 2-pyridinol N-oxide material and an iron chelator” (The Procter & Gamble Company, priority 2017, dated 2020)
Marks after values point to notes of the source that are not given here.

Experiments:
[1] = NIST Standard Reference Database 46; cited from earlier work
[2] = tested on: Staphylococcus aureus ATCC 6538; experiment: Minimum Inhibitory Concentration (MIC), broth dilution, visual pellet reading; assay type: cell-based; conditions: S. aureus ATCC 6538, material alone, 37° C., 24 hours, average of triplicates
Procedure: The minimum inhibitory concentration (“MIC”) is the concentration (in ppm) of anti-bacterial agent that causes growth inhibition of bacteria so that no pellet is formed in the culture medium (as explained below in the method). […] Staphylococcus aureus ATCC 6538 is cultured onto tryptic soy agar (TSA) (Oxoid CM0131) over 24 hours. […] This gives 5×10^5 cfu/mL. […] The plate is then placed into a plastic sheet to minimize evaporation. The plate is then incubated at 37° C. for 24 hours. After 24 hours, the plate is removed and read visually to determine if a pellet is formed at the bottom of the well versus positive (without adding antibacterial material) and negative (without bacterial inoculum) growth controls. […] The experiment is carried out in triplicates and the MIC values are determined by the average of the results.

[3] = tested on: Staphylococcus aureus ATCC 6538; experiment: Combinatorial Minimum Inhibitory Concentration (cMIC), OD 620 nm; conditions: for MIC: minimum amount of chelant at which there is no bacteria growth: chelator alone (0 ppm piroctone olamine)
Procedure: A Combinatorial Minimum Inhibitory Concentration (“cMIC”) is used to determine the combinatorial effects of two chemicals on anti-bacterial activity in a tissue culture setting. Herein, the cMIC is a measure of the Minimum Inhibitory concentrations of 1-hydroxy-4-methyl-6-(2,4,4-trimethylpentyl)-2-pyridone monoethanolamine salt in combination with a chelant or vice versa.
Method Overview: • a. Each cMIC assay is run in triplicates. • b. Staphylococcus aureus ATCC 6538 is cultured on tryptic soy agar (TSA) (Oxoid CM0131) over 24 hours. The single colonies are then transferred into saline and mixed through vortex to obtain an optical density (OD) of 0.08-0.13 at 620 nm. 200 uL of this bacterial suspension is added to 19.8 mL of Mueller Hinton Broth (MHB) (BD 212322). This gives 5×10^5 cfu/mL. 100 uL of this bacteria-MHB mix is added to a 96 well flat-bottomed plate (TRP 92196). • c. 1-hydroxy-4-methyl-6-(2,4,4-trimethylpentyl)-2-pyridone monoethanolamine salt is pipetted into the wells in varying concentrations as indicated below. • d. Different Chelants are pipetted into the wells in varying concentrations, as indicated below. • e. The plates are then read using a spectrophotometer at 620 nm. This is the 0-hour reading. • f. The plates are incubated at 37° C. for 18 hours with shaking at 50 rpm. • g. The optical density of the plate is then measured using a spectrophotometer at 620 nm. • h. The OD value is calculated as subtraction of the readings between 18-hour and the 0-hour. • i. cMIC is determined as the minimal concentration of 1-hydroxy-4-methyl-6-(2,4,4-trimethylpentyl)-2-pyridone monoethanolamine salt in combination with a chelant or vice versa, corresponding to the well whose OD value is less than 10% of the OD value of the control well without 1-hydroxy-4-methyl-6-(2,4,4-trimethylpentyl)-2-pyridone monoethanolamine salt and chelator (full growth).

[4] = 3.125 ppm piroctone olamine combined with chelator (62.5 ppm DTPMP or 250 ppm DTPA), (MIC − cMIC)/MIC x 100%
[5] = 6.25 ppm piroctone olamine combined with chelator (15.6 ppm DTPMP or 125 ppm DTPA)
[6] = 6.25 ppm piroctone olamine combined with chelator (15.6 ppm DTPMP or 125 ppm DTPA), (MIC − cMIC)/MIC x 100%
[7] = in the presence of 3.125 ppm piroctone olamine
[8] = in the presence of 6.25 ppm piroctone olamine

| Structure (SMILES) | Log K1 (iron binding affinity) [1] | MIC (ppm) [2] [ppm] | Antibacterial Efficiency of piroctone olamine boosted by Chelator [3, 4] [%] | boost of antibacterial efficacy of piroctone olamine alone (fold) [3, 5] [fold] | Antibacterial Efficiency of piroctone olamine boosted by Chelator [3, 6] [%] | MIC: minimum amount of chelant at which there is no bacteria growth [3] | cMIC: minimum amount of chelant at which there is no bacteria growth in the presence of piroctone olamine [3, 7] | cMIC: minimum amount of chelant at which there is no bacteria growth in the presence of piroctone olamine [3, 8] | also measured |
| --- | --- | --- | --- | --- | --- | --- | --- | --- | --- |
| O=C(O)CC(O)(CC(=O)O)C(=O)O [Citric Acid] | 11 |  |  |  |  |  |  |  |  |
| O=C(O)CN(CCN(CC(=O)O)CC(=O)O)CCN(CC(=O)O)CC(=O)O [DTPA, diethylenetriaminepentaacetic acid] | 28 | 500 | 75 | 2 | 50 | 500^# ppm | 250^## ppm | 125^## ppm |  |
| O=P(O)(O)CN(CCN(CP(=O)(O)O)CP(=O)(O)O)CCN(CP(=O)(O)O)CP(=O)(O)O [DTPMP, Diethylenetriaminepentakis (methylenephosphonic acid)] | 23 | 250 | 75 | 2 | 50 | 250^# ppm | 62.5^## ppm | 15.6^## ppm | boost of antibacterial efficacy of piroctone olamine alone (fold) ([3]; 3.125 ppm piroctone olamine combined with chelator (62.5 ppm DTPMP or 250 ppm chelator)): 4 fold |
| CC(=O)N(O)CCCCCNC(=O)CCC(=O)N(O)CCCCCNC(=O)CCC(=O)N(O)CCCCCN [Desferrioxamine, reference compound] | 31 |  |  |  |  |  |  |  |  |
| CC(C(=O)O)N(CC(=O)O)CC(=O)O (stereo not shown) [MGDA, Methylglycine diacetic acid] | 16 |  |  |  |  |  |  |  |  |
| Cc1cc(CC(C)CC(C)(C)C)n(O)c(=O)c1.NCCO (stereo not shown) [reference compound] |  |  |  |  |  |  |  |  | MIC ([2]; Staphylococcus aureus, ATCC6538): 12.5 µg/mL; Antibacterial Efficiency of piroctone olamine boosted by Chelator ([3]; 12.5 ppm piroctone olamine, 0 ppm chelator): 0; cMIC: minimum amount of piroctone olamine at which there is no bacteria growth in the presence of chelant ([3]; in the presence of 125 ppm DTPA): 6.25** ppm; cMIC: minimum amount of piroctone olamine at which there is no bacteria growth in the presence of chelant ([3]; in the presence of 250 ppm DTPA): 3.125** ppm; MICpiroctone olamine: minimum amount of the salt at which there is no bacteria growth ([3]; piroctone olamine alone (0 ppm chelator)): 12.5* ppm |
